Measurements from patent US9650340B2, “5-fluoro-N-(pyridin-2-yl)pyridin-2-amine derivatives containing a sulfoximine group” (BAYER PHARMA AKTIENGESELLSCHAFT, priority 2012, dated 2017).

Tests used:
[1] = target: T1, CDK9/CycT1 (Homo sapiens, UniProt P50750); test: CDK9/CycT1 kinase assay (TR-FRET, 10 μM ATP); assay type: biochemical; settings: Method 1a
T1 construct: Recombinant full-length His-tagged human CDK9 and CycT1; His; purchased Invitrogen PV4131; host or cells: insect cells
From the text: 1a. CDK9/CyeT1 Kinase Assay:
CDK9/CycT1-inhibitory activity of compounds of the present invention was quantified employing the CDK9/CycT1 TR-FRET assay as described in the following paragraphs:
Recombinant full-length His-tagged human CDK9 and CycT1, expressed in insect cells and purified by Ni-NTA affinity chromatography, were purchased from Invitrogen (Cat. No PV4131). As substrate for the kinase reaction biotinylated peptide biotin-Ttds-[…] (C-terminus in amid form) was used which can be purchased e.g. form the company JERINI Peptide Technologies (Berlin, Germany). For the assay 50 nl of a 100 fold concentrated solution of the test compound in DMSO was pipetted into a black low volume 384 well microtiter plate (Greiner Bio-One, Frickenhausen, Germany), 2 μl of a solution of CDK9/CycT1 in aqueous assay buffer [50 mM Tris/HCl pH 8.0, 10 mM MgCl2, 1.0 mM dithiothreitol, 0.1 mM sodium ortho-vanadate, 0.01% (v/v) Nonidet-P40 (Sigma)] were added and the mixture was incubated for 15 min at 22° C. to allow pre-binding of the test compounds to the enzyme before the start of the kinase reaction.
The resulting mixture was incubated 1 h at 22° C. to allow the formation of complex between the phosphorylated biotinylated peptide and the detection reagents. Subsequently the amount of phosphorylated substrate was evaluated by measurement of the resonance energy transfer from the Eu-chelate to the streptavidine-XL.

[2] = system: HeLa, human cervical tumour cells; test: Proliferation assay, HeLa (crystal violet); assay type: cell-based; settings: 4 days, read-out: Inhibition of HeLa cell proliferation IC50
Procedure: (§1) Cultivated tumour cells (HeLa, human cervical tumour cells, ATCC CCL-2; NCI-H460, human non-small cell lung carcinoma cells, ATCC HTB-177; A2780, human ovarian carcinoma cells, ECACC #93112519; DU 145, hormone-independent human prostate carcinoma cells, ATCC HTB-81; HeLa-MaTu-ADR, multidrug-resistant human cervical carcinoma cells, EPO-GmbH Berlin; Caco-2, human colorectal carcinoma cells, ATCC HTB-37; B16F10, mouse melanoma cells, ATCC CRL-6475) were plated at a density of 5,000 cells/well (DU145, HeLa-MaTu-ADR), 3,000 cells/well (NCI-H460, HeLa), 2,500 cells/well (A2780), 1,500 cells/well (Caco-2), or 1,000 cells/well (B16F10) in a 96-well multititer plate in 200 μL of their respective growth medium supplemented 10% fetal calf serum. After 24 hours, the cells of one plate (zero-point plate) were stained with crystal violet (see below), while the medium of the other plates was replaced by fresh culture medium (200 μl), to which the test substances were added in various concentrations (0 μM, as well as in the range of 0.001-10 μM; the final concentration of the solvent dimethyl sulfoxide was 0.5%). The cells were incubated for 4 days in the presence of test substances. Cell proliferation was determined by staining the cells with crystal violet: the cells were fixed by adding 20 μl/measuring point of an 11% glutaric aldehyde solution for 15 minutes at room temperature. After three washing cycles of the fixed cells with water, the plates were dried at room temperature. The cells were stained by adding 100 μl/measuring point of a 0.1% crystal violet solution (pH 3.0). After three washing cycles of the stained cells with water, the plates were dried at room temperature. The dye was dissolved by adding 100 μl/measuring point of a 10% acetic acid solution. The extinction was determined by photometry at a wavelength of 595 nm. The change of cell number, in percent, was calculated by normalization of the measured values to the extinction values of the zero-point plate (=0%) and the extinction of the untreated (0 μm) cells (=100%). The IC50 values (inhibitory concentration at 50% of maximal effect) were determined by means of a 4 parameter fit. Non-adherent MOLM-13 human acute myeloid leukemia cells (DSMZ ACC 554) were seeded at a density of 5,000 cells/well in a 96-well multititer plate in 100 μL of growth medium supplemented 10% fetal calf serum. After 24 hours, cell viability of one plate (zero-point plate) was determined with the Cell Titre-Glo Luminescent Cell Viability Assay (Promega), while 50 μL of test compound containing medium was added to the wells of the other plates (final concentrations in the range of 0.001-10 μM and DMSO controls; the final concentration of the solvent dimethyl sulfoxide was 0.5%). Cell viability was assessed after 72-hour exposure with the Cell Titre-Glo Luminescent Cell Viability Assay (Promega).

[3] = system: NCI-H460, human non-small cell lung carcinoma cells; test: Proliferation assay, NCI-H460 (crystal violet); assay type: cell-based; settings: NCI-H460, 4 days; read-out: Inhibition of NCI-H460 cell proliferation IC50
Procedure: as §1

[4] = system: B16F10, mouse melanoma cells; test: Proliferation assay, B16F10 (crystal violet); assay type: cell-based; settings: B16F10, 4 days; read-out: Inhibition of B16F10 cell proliferation IC50
Procedure: as §1

T1 sequence (P50750 whole entry): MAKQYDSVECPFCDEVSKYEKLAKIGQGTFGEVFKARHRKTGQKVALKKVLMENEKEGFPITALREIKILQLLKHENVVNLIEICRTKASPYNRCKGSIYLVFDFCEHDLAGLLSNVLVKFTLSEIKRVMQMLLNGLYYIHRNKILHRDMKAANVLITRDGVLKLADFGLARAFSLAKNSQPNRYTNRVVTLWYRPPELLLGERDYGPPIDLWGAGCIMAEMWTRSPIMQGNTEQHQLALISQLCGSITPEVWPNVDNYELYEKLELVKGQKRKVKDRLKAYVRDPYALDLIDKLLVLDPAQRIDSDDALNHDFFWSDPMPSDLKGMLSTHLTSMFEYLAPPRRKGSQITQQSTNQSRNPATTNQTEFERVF
T1 sequence (O60563 whole entry partner): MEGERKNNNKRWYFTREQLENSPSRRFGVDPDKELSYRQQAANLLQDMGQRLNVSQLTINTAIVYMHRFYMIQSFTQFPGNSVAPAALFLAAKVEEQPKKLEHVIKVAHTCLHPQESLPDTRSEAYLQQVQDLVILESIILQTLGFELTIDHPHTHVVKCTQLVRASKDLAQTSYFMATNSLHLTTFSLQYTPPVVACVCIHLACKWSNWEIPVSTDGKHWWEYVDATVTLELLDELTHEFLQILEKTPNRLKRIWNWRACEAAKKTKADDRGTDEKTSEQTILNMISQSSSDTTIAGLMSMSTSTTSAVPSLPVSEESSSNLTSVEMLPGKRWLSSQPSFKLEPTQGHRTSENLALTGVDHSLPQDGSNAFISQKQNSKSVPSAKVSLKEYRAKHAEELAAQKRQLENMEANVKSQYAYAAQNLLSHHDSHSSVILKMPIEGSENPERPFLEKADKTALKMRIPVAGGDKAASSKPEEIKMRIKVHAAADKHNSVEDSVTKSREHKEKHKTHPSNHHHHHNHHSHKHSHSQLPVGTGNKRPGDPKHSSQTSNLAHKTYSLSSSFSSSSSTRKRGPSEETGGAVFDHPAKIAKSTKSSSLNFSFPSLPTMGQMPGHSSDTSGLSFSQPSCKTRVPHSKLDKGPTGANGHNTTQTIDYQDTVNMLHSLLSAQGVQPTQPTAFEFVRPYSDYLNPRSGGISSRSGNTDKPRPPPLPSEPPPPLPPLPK

Structure (SMILES): CCOc1cc(F)ccc1-c1cc(Nc2cc(CS(C)(=N)=O)cc(F)n2)ncc1F (single isomer, unassigned; (-)) [Example 29, (−)-4-(2-Ethoxy-4-fluorophenyl)-5-fluoro-N-{6-fluoro-4-[(S-methylsulfonimidoyl)methyl]pyridin-2-yl}pyridin-2-amine]
- IC50 [1]: 3 nM
- IC50 [2]: 110 nM
- IC50 [3]: 150 nM
- IC50 [4]: 110 nM
